Test results: PMC6627374, “Effects of the Pentapeptide P33 on Memory and Synaptic Plasticity in APP/PS1 Transgenic Mice: A Novel Mechanism Presenting the Protein Fe65 as a Target” (International Journal of Molecular Sciences, 2019)

Biological target: T1, Fe65-WW domain (WW domain of Fe65) (Homo sapiens, UniProt O00213)
T1 construct: made in house; host or cells: chemical solid-phase peptide synthesis (Fmoc, Rink Amide AM resin); no expression host
T1 sequence (O00213 253-285 limits assumed): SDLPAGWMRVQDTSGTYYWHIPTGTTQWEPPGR
Experiment: ITC binding to Fe65-WW
Parameters: species or system human and mouse (WW domain identical)
Details: 310 K, PBS pH 7.4, Fe65-WW 83.5 μM in cell, PPPPP 1.056 mM in syringe (control)
Protocol: Synthesis of acetyl-Fe65-WW, acetyl-Pin1-WW, and the control PPPPP (structures involved in Figure 2) was carried out on a Rink Amide AM (0.3 mmol∙g^−1) resin using Fmoc chemistry and activation with HATU in the presence of DIPEA. Cleavage was achieved by a treatment with TFA/H2O/triisopropylsilane/1,4-dithio-DL-threitol/phenol (90:5:3:1:1) at room temperature (RT). TFA was removed in vacuo, the peptides were then precipitated using cold, dry diethyl-ether, dissolved in ACN/H2O and lyophilized.
Isothermal titrations were performed using a Microcal VP-ITC (Malvern Instruments, Malvern, UK) microcalorimeter. Binding experiments were carried out in degassed phosphate-buffered saline (PBS) at pH 7.4. The concentrations of Fe65-WW and Pin1-WW were normalized for the peptide contents. In one titration experiment, 10-μL portions of the ligand-containing solution (P33 or PPPPP) were injected from a computer-controlled 300-μL microsyringe at intervals of 300 s into the solution of the WW domain (Fe65-WW or Pin1-WW), dissolved in the same buffer as for the ligand. The rev of the microsyringe was set to 307 rpm. Measurements were repeated twice at 310 K. The starting concentrations of Fe65-WW and Pin1-WW in the cell were 83.5 and 81.4 μM, respectively, and the concentrations of the stock solutions containing P33 or PPPPP in the syringe were 1.006 and 1.056 mM, respectively. Control experiments were performed by injecting P33 or PPPPP into the cell containing plain buffer without the WW domain, with results achieved via subtracting the dilution heats from those measured in the presence of the WW domain.

For “PPPPP [control pentapeptide PPPPP, reference compound]”, the “binding to Fe65-WW (in words)” value was “no binding between the Fe65-WW and the pentapeptide could be observed”.
